{"source": "patent US20120149080A1", "about": "“YEAST PRODUCTION CULTURE FOR THE PRODUCTION OF BUTANOL” (Butamax(TM) Advanced Biofuels LLC, priority 2010, published 2012)", "key": {"[1]": {"experiment": "Alcohol concentration of cultures after 24 hours by HPLC", "assay_type": "physicochemical", "conditions": "Example 2 cultures, 30° C.", "description": "Saccharomyces cerevisiae BY4743 (ATCC 201390) was plated from a freezer vial onto YPD agar (Teknova, Hollister, Calif.; Cat. #Y1000) and incubated overnight at 30° C. Cells from the YPD plate were inoculated into a 25 ml pre-culture of YPD broth (Teknova; Cat. #Y5000) with an initial OD600 of 0.06 to 0.08. The pre-culture was grown for 7 hours in an aerobic shaker at 30° C. An aliquot of the pre-culture was inoculated into 200 ml of YPD broth, with an initial OD600 of 0.06 to 0.08, and this culture was incubated with aeration at 30° C. for approximately 17 hours. The optical density of the culture was measured, the culture was centrifuged and the cells were resuspended to yield an OD600 of 5 in fresh YPD broth. This is referred to as a high cell density (HCD) culture. […] This is referred to as a low the cell density (LCD) culture. These cultures were incubated at 30° C. with shaking for 30 minutes for an acclimation period. At the end of the 30 minute acclimation period, the OD600 was measured. 5 ml of low or high cell density culture was dispensed to 15 ml conical tubes which contained different concentrations of the alcohol to be tested. […] All samples were filtered with Acrodisc CR PTFE 0.2 μm filters (Pall Life Sciences, Port Washington, N.Y.) and analyzed using a Shodex SH1011 column (8 mm ID×300 mm length; Showa Denko America, Inc., New York, N.Y.) and a Shodex SH-G as a guard column. […]"}, "[2]": {"system": "Issatchenkia orientalis PNY0660", "experiment": "Glucose utilization rate in high cell density culture in corn test medium", "assay_type": "cell-based", "conditions": "for Glucose utilization rate: 30 C., 0 h to 6 h, 2.7 gdcw/L, corn test medium", "description": "Strain Issatchenkia orientalis PNY0660, was derived from ATCC 20381 strain that was previously referred to as Candida acidothermophilium. Strain PNY0660 was plated from a freezer vial onto YPD agar (Teknova, Hollister, Calif.; Cat. #Y1000) and incubated overnight at 30° C. Cells from the YPD plate were inoculated into a 50 ml pre-culture of YPD broth (Teknova, Hollister, Calif.; Cat. #Y5000) with an initial OD600 of 0.06 to 0.08, and this culture was grown for 5 hours in an air shaker at 30° C. An aliquot of the pre-culture was inoculated into 200 ml of YPD broth with an initial OD600 of 0.6, and this culture was incubated with aeration at 30° C. for approximately 17 hours. The optical density of the culture was determined, the culture was centrifuged, and the sugar consumption rate was determined in corn test medium. Corn test medium contained 0.2% casamino acids and 2% glucose and 100 mM MES buffer pH 5.25 and per liter contained (i) salts: ammonium sulfate 5.0 g, potassium phosphate monobasic 2.8 g, and magnesium sulfate heptahydrate 0.5 g, (ii) vitamins: biotin (D−) 0.40 mg, Ca D(+) panthotenate 8.00 mg, myo-inositol 200.00 mg, pyridoxol hydrochloride 8.00 mg, p-aminobenzoic acid 1.60 mg, riboflavin 1.60 mg, folic acid 0.02 mg, niacin 30.0 mg, and thiamine 30 mg; and (iii) trace elements: EDTA (Titriplex 1117) 99.38 mg, zinc sulphate heptahydrate 29.81 mg, manganese chloride dehydrate 5.57 mg, cobalt(II)chloride hexahydrate 1.99 mg, copper(II)sulphate pentahydrate 1.99 mg, Di-sodium molybdenum dehydrate 2.65 mg, calcium chloride dehydrate 29.81 mg, iron sulphate heptahydrate 19.88 mg, and boric acid.\n20 ml cultures (2.7 gdcw/L) in corn test medium were transferred to flasks that contained 0.0%, 0.5%, 1.0%, 1.5%, 1.75% or 2.0% isobutanol. Time of addition of cells was referred to as 0 hours. At various times, samples (1.5 ml) were withdrawn and centrifuged at 10,000 rpm for 2 minutes in a microfuge (Sorvall Biofuge pico). The supernatant was filtered through a 0.2 μm filter (Pall Life Sciences, Port Washington, N.Y.) Pall GHP Acrodisc 13 mm Syringe Filter with 0.2 μm GHP Membrane), the filtrate was diluted ten-fold, and the glucose concentration was determined using a YSI Glucose Analyzer (YSI 2700 Select; YSI, Inc., Yellow Springs, Ohio)."}, "[3]": {"system": "Saccharomyces cerevisiae BY4743", "experiment": "24 hour survival (CFU) at low and high cell density", "assay_type": "cell-based", "description": "Saccharomyces cerevisiae BY4743 (ATCC 201390) was plated from a freezer vial onto YPD agar (Teknova, Hollister, Calif.; Cat. #Y1000) and incubated overnight at 30° C. Cells from the YPD plate were inoculated into a 25 ml pre-culture of YPD broth (Teknova; Cat. #Y5000) with an initial OD600 of 0.06 to 0.08. The pre-culture was grown for 7 hours in an aerobic shaker at 30° C. An aliquot of the pre-culture was inoculated into 200 ml of YPD broth, with an initial OD600 of 0.06 to 0.08, and this culture was incubated with aeration at 30° C. for approximately 17 hours. The optical density of the culture was measured, the culture was centrifuged and the cells were resuspended to yield an OD600 of 5 in fresh YPD broth. This is referred to as a high cell density (HCD) culture. […] This is referred to as a low the cell density (LCD) culture. These cultures were incubated at 30° C. with shaking for 30 minutes for an acclimation period. At the end of the 30 minute acclimation period, the OD600 was measured. 5 ml of low or high cell density culture was dispensed to 15 ml conical tubes which contained different concentrations of the alcohol to be tested. A control tube included no alcohol. The tubes were placed in a rotary drum at 30° C. and incubated for 24 hours. The time of addition of cells was referred to as “time 0”. […] Colony forming units (CFUs) were determined on YPD plates at time 0 for the control and at 24 hours for each of the cultures, including the control culture, using standard microbiological methods. […] Colonies were counted after 48 hours, and CFUs/ml were calculated. At time 0, the low cell density cultures had about 4.8×10^5 CFUs/ml, and the high cell density cultures had about 5.4×10^7 CFUs/ml."}}}
{"smiles": "CC(C)CO", "note": "[Isobutanol, isobutanol]", "values": [{"measurement": "alcohol lost during the incubation period", "setting": "[1]", "value": "< 0.01", "unit": "%"}, {"measurement": "Glucose utilization rate", "setting": "[2]; 5.0 g/L isobutanol", "value": 2.4, "unit": "g/gdcw/h"}, {"measurement": "Glucose utilization rate", "setting": "[2]; 10.0 g/L isobutanol", "value": 2.4, "unit": "g/gdcw/h"}, {"measurement": "Glucose utilization rate", "setting": "[2]; 15.0 g/L isobutanol", "value": 1.4, "unit": "g/gdcw/h"}, {"measurement": "Glucose utilization rate", "setting": "[2]; 17.5 g/L isobutanol", "value": 0.9, "unit": "g/gdcw/h"}, {"measurement": "Glucose utilization rate", "setting": "[2]; 20.0 g/L isobutanol", "value": 0.7, "unit": "g/gdcw/h"}, {"measurement": "sugar consumption rate", "setting": "[2]; I. orientalis strains, 20 g/l of isobutanol", "value": 0.7, "unit": "g/gdw/h"}, {"measurement": "Percent Survival HCD (%)", "setting": "[3]; 1.0% (w/v) alcohol, high cell density OD600 5", "value": 77.8, "unit": "%"}, {"measurement": "Percent Survival LCD (%)", "setting": "[3]; 1.0% (w/v) alcohol, low cell density OD600 0.05", "value": 0.6, "unit": "%"}, {"measurement": "Percent Survival HCD (%)", "setting": "[3]; 1.5% (w/v) alcohol, high cell density", "value": 45.1, "unit": "%"}, {"measurement": "Percent Survival LCD (%)", "setting": "[3]; 1.5% (w/v) alcohol, low cell density", "value": 0.1, "unit": "%"}, {"measurement": "Percent Survival HCD (%)", "setting": "[3]; 2.5% (w/v) alcohol, high cell density", "value": "<0.001", "unit": "%"}, {"measurement": "Percent Survival LCD (%)", "setting": "[3]; 2.5% (w/v) alcohol, low cell density", "value": "<0.001", "unit": "%"}]}
